In US7459282B2, “Use of c-Jun or c-Jun activating agents such as UV or c-Jun N-terminal kinases (JNKs) for treating cancer” (Biotech Research Ventures Pte Limited, priority 2001, dated 2008):
Square brackets hold non-standard residues; d marks the D form. Peptide text beside a SMILES is read from it. Nle = CCCC[C@H](N)C(=O)O

Legend:
p73 [1] = assay: Western blot of endogenous p73 levels in fibroblasts after cisplatin; assay type: cell-based, mouse; set-up: levels of p73 protein: dose or concentration left out as unconfirmed
Procedure: FIG. 1. […] These extracts were analysed by Western blotting for the expression of p73 and phosphorylated c-Jun using specific antibodies.
FIG. 2. c-Jun is necessary for cisplatin-induced p73 expression and apoptosis. […] (b) Extracts from cells described in (a) were analyzed for endogenous p73 levels by Western blotting.
Although p73 is a structural and functional homologue of the p53 tumour suppressor protein, p73 is only activated by a subset of agents that activate p53. […] The inventors have thus investigated the molecular mechanism(s) by which p73 activity is regulated. […] The increase in p73 levels in cisplatin-treated cells correlates with the phosphorylation of the proto-oncogene product, c-Jun (FIG. 1). Phosphorylated c-Jun was not detected upon gamma-irradiation of cells (FIG. 1).

p73 [2] = assay: Egfp reporter screen for p73 activation in H1299-p53RE cells; assay type: cell-based, human; conditions: p53-null H1299 reporter cells
Excerpt: The screen utilises a p53 null cell line, H1299, which is a human lung cancer cell line. In these cells, p53 is not active as the gene is deleted. The inventors have transfected a plasmid containing the p53/p73 binding DNA sequences (or responsive element) driving the enhanced green fluorescent protein gene (Egfp) as a reporter (FIG. 8). Generally, the reporter would be turned “on” when p53 or its homologues bind to the responsive element. […] However, when the cells are exposed to compounds that activate p73, which is normally present in a dormant state in these cells, then these cells would fluoresce and would be visible as green cells under the fluorescence microscope.
It is important to note that all the cells in the population expressed Egfp, implying that the cell-system generated is homogenous and results in a 100% response.

p73 [3] = assay: Western blot of p73 in MCF-7-p73 cells after proteosome inhibitor; assay type: cell-based, human; conditions: proteosome inhibitor for 3 hours
Procedure: FIG. 4. c-Jun is required for UV-mediated p73 stabilization. (a) MCF-7 cells stably transfected with p73 and parental MCF-7 cells were treated with the proteosome inhibitor for 3 hours or UV irradiated (50 J/m^2) and cell extracts were analyzed 2 hours post-irradiation by Western blotting as described in FIG. 1. (b) c-Jun^−/− and c-Jun^−/−+c-Jun mouse embryonic fibroblasts were transfected with the indicated plasmids and were untreated or UVC irradiated (40 J/m^2) or gamma-irradiation (10Gy) 24 hours post-transfection. 24 hours after irradiation, cell extracts were prepared and analyzed for p73 protein levels by Western blotting.
To analyze if c-Jun provides the stabilization signal, the inventors generated MCF-7 breast carcinoma cells stably expressing p73 (MCF-7-p73 cells), which would thus provide a detectable level of basal p73 expression. The overexpressed p73 was expressed in these cells (FIG. 4a). […] However, when these cells were treated with UV irradiation, which is a potent inducer of c-Jun but not p73 (Jost C A. et al, p73 is a simian [correction of human] p53-related protein that can induce apoptosis, Nature, 1997, Sep. 11; 389(6647):191-4.), p73 expression was detected as early as 2 hours post-irradiation, in contrast to the parental MCF-7 cells (FIG. 4a).

## N.N.[Cl][Pt][Cl] [cisplatin]
p73 [1]; absence of c-Abl, cisplatin
  p73 protein induction: severely compromised
p73 [1]; c-Jun-/- cells, cisplatin 25 μM, 24 hours
  p73 protein induction: abrogated the induction of p73
p73 [1]; jun-/-+c-Jun cells, cisplatin 25 μM, 24 hours
  p73 protein induction: induced significantly
p73 [1]; wild-type mouse embryonic fibroblasts, cisplatin (FIG. 1), 24 hours post-treatment
  levels of p73 protein: increase in the levels of p73 protein
p73 [2]; cisplatin treated
  response of the cell population (cells expressing Egfp): 100%
p73 [2]; flow cytometer
  expression of Egfp (endogenous p73 activity): expression of Egfp in all the cells

## CCCC[C@@H](C=O)NC(=O)[C@H](CC(C)C)NC(=O)[C@H](CC(C)C)NC(C)=O [ALLN] (Ac-Leu-Leu-[Nle]-aldehyde)
p73 [3]
  expression of p73 protein: did not result in the increased expression of p73 protein
